# Values quoted from earlier work as cited in patent US20200113872A1, “Ifetroban Treatment for Systemic Sclerosis” (Cumberland Pharmaceuticals Inc., priority 2016, published 2020).
# Test system: pulmonary artery banded mice
structure (smiles),measurement,setting,value
"CCCCCNC(=O)c1coc([C@H]2[C@@H](Cc3ccccc3CCC(=O)O)[C@@H]3CC[C@H]2O3)n1 [ifetroban, [1S-(1α,2α,3α,4α)]-2-[[3-[4-[(Pentylamino)carbonyl]-2-oxazolyl]-7-oxabicyclo[2.2.1]hept-2-yl]methyl]-benzenepropanoic acid]",right ventricular expression of anti-fibrotic and muscularization genes,,augmented
same,ratio of the early (E) to late (A) ventricular filling velocities (E/A ratio),one indicator of cardiac efficiency,increased
same,expression of genes associated with inflammation,right ventricle,decreased
same,cardiomyocyte hypertrophy,treatment with ifetroban,reduced
same,right ventricular fibrosis,treatment with ifetroban,reduced
